Experimental findings from patent US8614068B2, “Process for producing hepcidin” (Hellenic Pasteur Institute, priority 2007, dated 2013) are described below.

“Also recorded” adds a separate entry of the source.

The target in one assay is T1, FPN1-GFP (Mus musculus, UniProt Q9JHI9).
T1 construct: expressed in transfected cells
T1 sequence (Q9JHI9 1-570): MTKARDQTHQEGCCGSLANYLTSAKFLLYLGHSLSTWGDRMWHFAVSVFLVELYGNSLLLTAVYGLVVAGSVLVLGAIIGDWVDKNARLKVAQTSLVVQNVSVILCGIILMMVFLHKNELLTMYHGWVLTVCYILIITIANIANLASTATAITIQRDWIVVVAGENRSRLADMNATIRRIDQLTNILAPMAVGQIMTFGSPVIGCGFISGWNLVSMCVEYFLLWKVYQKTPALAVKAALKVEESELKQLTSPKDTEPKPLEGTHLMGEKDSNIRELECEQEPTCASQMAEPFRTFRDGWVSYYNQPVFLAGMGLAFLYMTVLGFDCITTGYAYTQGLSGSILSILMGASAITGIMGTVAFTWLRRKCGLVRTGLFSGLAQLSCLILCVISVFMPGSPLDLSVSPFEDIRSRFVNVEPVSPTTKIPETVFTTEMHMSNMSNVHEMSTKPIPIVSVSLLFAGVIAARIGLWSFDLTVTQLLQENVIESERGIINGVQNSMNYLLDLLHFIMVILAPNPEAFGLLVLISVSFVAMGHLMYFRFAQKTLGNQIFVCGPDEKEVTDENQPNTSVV
The assay can be described thus: FPN1-GFP internalization by confocal microscopy in HEK293-Fpn cells. The assay is classed as cell-based. Particulars: HEK293-Fpn cells induced with ponasterone 24 h, treated 3 h. The method, then:
A, RAW 264.7 macrophages were treated with 11 μM and 10 μM of synthetic hepcidin-25 (having the sequence of SEQ ID NO. 2) and Hep-25His (having the sequence of SEQ ID NO. 6) for 4 h at 37° C. or with PBS as negative control. Cell lysates were subjected to 8% SDS PAGE and Western Blot with antibodies against TfR1, Ferroportin and actin as loading control. B, The signal density of ferroportin, TfR1 and actin protein bands from two independent experiments were quantified by densitometry and their intensity relative to actin was calculated. Data are expressed as mean of ratios of TfR1 or to actin levels ±S.D. for each experimental condition. *p<0.01. […] Hep25-His, negative peptide and PBS was incubated with Raw 264.7 macrophages, followed by cross-linking with DSS. Cell lysates were incubated with Ni2-NTA and eluates were analyzed by Western blot using anti-FPN1 Ab. […] Fluorescence was visualized with a Leica TCS confocal microscope. […]
Furthermore, the internalization of FPN1 in the presence of Hep25-His (having the sequence of SEQ ID NO. 6) was analyzed in HEK293-Fpn cells by confocal microscopy; these cells express an FPN1-GFP fusion construct on the plasma membrane (Nemeth, E., Tuttle, M. S., Powelson, J., Vaughn, M. B., Donovan, A., Ward, D. M. Ganz, T., Kaplan, J. (2004) Science 306, 2090-3).

The subject of another assay is TfR1. The assay can be described thus: Western blot of TfR1 expression in macrophages. The assay is classed as cell-based, murine. Here is the method:
A, RAW 264.7 macrophages were treated with 11 μM and 10 μM of synthetic hepcidin-25 (having the sequence of SEQ ID NO. 2) and Hep-25His (having the sequence of SEQ ID NO. 6) for 4 h at 37° C. or with PBS as negative control. Cell lysates were subjected to 8% SDS PAGE and Western Blot with antibodies against TfR1, Ferroportin and actin as loading control. B, The signal density of ferroportin, TfR1 and actin protein bands from two independent experiments were quantified by densitometry and their intensity relative to actin was calculated. […] Hep25-His, negative peptide and PBS was incubated with Raw 264.7 macrophages, followed by cross-linking with DSS. Cell lysates were incubated with Ni2-NTA and eluates were analyzed by Western blot using anti-FPN1 Ab. […] HEK293-Fpn cells were induced with ponasterone for 24 h and then treated with Hep25-His or synthetic hepcidin 25 (s. Hep25) for 3 h. Fluorescence was visualized with a Leica TCS confocal microscope.
Western blotting—1×10^6 cells (RAW 264.7, THP-1 or J774) were plated in […] plates and after 12-20 h cells were treated with hepcidins in serum-free DMEM for 4 h, at 37° C. Afterwards, cells were re-suspended in lysis buffer (1% Triton, 25 mM Hepes pH 7.4, 150 mM NaCl, 10% Glycerol, 5 mM EDTA, 0.5 mM PMSF, protein inhibitors (Roche, Mannheim, Germany) and quantified by Bradford assay (Biorad, Hercules, Calif.). 30 μg of cell lysate was analyzed on 8% SDS-PAGE. Proteins were transferred to Hybond C nitrocellulose membrane (Amersham Biosciences, Piscataway, N.J.) and the membranes were incubated with the primary antibodies rabbit anti-ferroportin (Alpha Diagnostics, San Antonio, Tex.), mouse anti-TfR1 (Zymed, Invitrogen, Carlsbad, Calif.) and mouse anti-β actin (Santa Cruz Biotech, Santa Cruz, Calif.), in a dilution of 1:1000, overnight at 4° C. […] Specific signal was detected with a chemiluminescence assay kit (ECL, Amersham Biosciences, Piscataway, N.J.). The bands were quantified by densitometry using the Quantity-One (Biorad, Hercules, Calif.) software. […]
(Immunoblotting shows a protein as a band on a membrane.)

On to hepcidin-25His [Hep-25His], for which the “internalization of FPN1-GFP” value on FPN1-GFP is recorded as “promoted the internalization of FPN1-GFP; also recorded: causes the internalization of FPN1-GFP”. For the same substance, the “reduction of TfR1 in comparison to untreated cells” value in the assay with TfR1 (RAW 264.7, 10 μM, 4 h at 37° C.) is reported as 48%±17.7. In the assay on TfR1 (RAW 264.7 macrophages), the “decrease in TfR1 expression” value is given as approximately 50%.
